# Biological target: T1, human glucagon receptor (Homo sapiens, UniProt P47871)
# T1 construct: expressed in transfected cells; host or cells: CHO-K1 cells, stably transfected
# Experiment: Glucagon cAMP assay (Cisbio cAMP detection)
# Format: cell-based
# Description: The Cisbio cAMP detection assay is used to determine the ability of punitive glucagon antagonist to block glucagon induced cAMP production. Potential glucagon antagonists are re-suspended and diluted in 100% DMSO. Prior to use in the Glucagon cAMP assay 100×DMSO compound stocks are diluted 20× with DMEM-F12 media (Invitrogen) containing either 0.1% or 4% BSA. 2 uls of 5× compound stocks are spotted into the appropriate wells of low binding white solid bottom 384 well plates (Corning). 2 uls of 5% DMSO or known glucagon antagonist are added to each plate to define the assay window. CHOK1 cells stably transfected with the human glucagon receptor are removed from culture flasks with cell dissociation buffer. Cell pellets are re-suspended, at a concentration of 8.3e^5 cells/ml in DMEM-F12 with or without 4% BSA and 200 uM IBMX. 6 uls of cell suspensions are added to the assay plates. Plates are incubated for 20 min at room temperature prior to the addition of a 100 pM challenge dose of glucagon. On a separate plate glucagon dose response curves are run to determine the EC50 of glucagon. After a 30 min room temperature incubation the reaction is terminated by the addition of lysis buffer containing the cAMP detection reagents. Plates are incubated for an additional 60 min at room temperature prior to being read on the Perkin Elmer fluorescent plate reader. Raw is converted to nM of cAMP produced based on a cAMP standard curve. Converted data is then analyzed using the Pfizer data analysis program. IC50 values are determined from the generated sigmoidal dose response curves. Kb values are the calculated using a modified Cheng-Prusoff equation.
# T1 sequence (P47871 26-477): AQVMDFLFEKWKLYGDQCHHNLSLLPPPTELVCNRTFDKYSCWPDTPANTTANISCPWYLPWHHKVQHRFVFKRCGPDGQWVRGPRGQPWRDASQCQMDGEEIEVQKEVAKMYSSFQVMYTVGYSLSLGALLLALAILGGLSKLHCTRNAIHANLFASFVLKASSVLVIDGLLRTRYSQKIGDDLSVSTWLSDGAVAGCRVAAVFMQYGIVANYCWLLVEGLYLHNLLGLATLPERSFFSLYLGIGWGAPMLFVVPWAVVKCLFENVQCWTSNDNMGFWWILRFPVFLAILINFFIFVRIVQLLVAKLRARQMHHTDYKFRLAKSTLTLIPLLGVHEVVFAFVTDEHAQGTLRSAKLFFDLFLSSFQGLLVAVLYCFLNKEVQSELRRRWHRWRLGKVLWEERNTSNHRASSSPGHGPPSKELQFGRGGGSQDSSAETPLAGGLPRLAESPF
row,Kb,Compound
1,290 nM,"CCCC(Nc1ccc(-c2ccc(C(F)(F)F)cc2)nn1)c1ccc(C(=O)NCCC(=O)O)cc1 (racemic) [Example 2.14, (+/−)-3-(4-(1-(6-(4-(trifluoromethyl)phenyl)pyridazin-3-ylamino)butyl)benzamido)propanoic acid]"
2,820 nM,"CCCC(Nc1cnc(-c2ccc(C(F)(F)F)cc2)c(C)c1)c1ccc(C(=O)NCCC(=O)O)cn1 (racemic) [Example 2.9, (+/−)-3-(6-(1-(5-methyl-6-(4-(trifluoromethyl)phenyl)pyridin-3-ylamino)butyl)nicotinamido)propanoic acid]"
3,120 nM,"O=C(O)CCNC(=O)c1ccc(NC(c2ccc(-c3ccc(C(F)(F)F)cc3)cc2)C2CCCOC2)nc1 (stereo not drawn) [Example 4.34, 3-(6-((tetrahydro-2H-pyran-3-yl)(4′-(trifluoromethyl)biphenyl-4-yl)methylamino)nicotinamido)propanoic acid]"
4,280 nM,"COC1CC(C(Nc2ccc(C(=O)NCCC(=O)O)cn2)c2ccc(-c3ccc(C(F)(F)F)cc3)cc2)C1 (stereo not drawn) [Example 4.33, 3-(6-((3-methoxycyclobutyl)(4′-(trifluoromethyl)biphenyl-4-yl)methylamino)nicotinamido)propanoic acid]"
5,780 nM,"Cc1ccccc1-c1ccc(C(CC(C)C)Nc2ccc(C(=O)NCCC(=O)O)cn2)cc1 (racemic) [Example 1.42, (+/−)-3-(6-(3-methyl-1-(2′-methylbiphenyl-4-yl)butylamino)nicotinamido)propanoic acid]"
6,61 nM,"CC(C)C[C@@H](Nc1ccc(C(=O)NCCC(=O)O)cn1)c1ccc(-c2ccc(C(F)(F)F)cc2)nc1 (single isomer, unassigned; isomer 1) [Example 4.20, 3-(6-(3-methyl-1-(6-(4-(trifluoromethyl)phenyl)pyridin-3-yl)butylamino)nicotinamido)propanoic acid, Isomer 1]"
7,73 nM,"CC(C)C[C@H](Nc1ccc(C(=O)NCCC(=O)O)cn1)c1ccc(-c2ccc(C(F)(F)F)cc2)cc1 [Example 1.3, (−)-(S)-3-(6-(3-methyl-1-(4′-(trifluoromethyl)biphenyl-4-yl)butylamino)nicotinamido)propanoic acid]"
8,6700 nM,"CC(C)CC(Nc1ccc(C(=O)NCCS(=O)(=O)O)cn1)c1ccc(-c2ccc(C(F)(F)F)cc2)cc1 (racemic) [Example 1.22, (+/−)-2-(6-(3-methyl-1-(4′-(trifluoromethyl)biphenyl-4-yl)butylamino)nicotinamido) ethanesulfonic acid]"
9,4600 nM,"CC(C)CC(Nc1ccc(C(=O)NCCC(=O)O)cn1)c1ccc(-c2cccnc2)cc1 (racemic) [Example 1.40, (+/−)-3-(6-(3-methyl-1-(4-(pyridin-3-yl)phenyl)butylamino)nicotinamido)propanoic acid]"
10,890 nM,"CC(C)CC(Nc1ncc(C(=O)Nc2nnn[nH]2)cn1)c1ccc(-c2ccc(C(F)(F)F)cc2)cc1 (racemic) [Example 1.19, (+/−)-2-(3-methyl-1-(4′-(trifluoromethyl)biphenyl-4-yl)butylamino)-N-(1H-tetrazol-5-yl)pyrimidine-5-carboxamide]"
11,88 nM,"CCCC(Nc1ccc(C(=O)NCCC(=O)O)cn1)c1ccc(-c2ccc(C(F)(F)F)cc2)cc1OC (stereo not drawn) [Example 4.24, 3-(6-(1-(3-methoxy-4′-(trifluoromethyl)biphenyl-4-yl)butylamino)nicotinamido)propanoic acid]"
12,70 nM,"Cc1ccc(-c2ccc(C(CC(C)C)Nc3ccc(C(=O)NCCC(=O)O)cn3)cc2)cc1 (racemic) [Example 1.50, (+/−)-3-(6-(3-methyl-1-(4′-methylbiphenyl-4-yl)butylamino)nicotinamido)propanoic acid]"
13,56 nM,"O=C(O)CCNC(=O)c1ccc(NC(c2cnc(-c3ccc(C(F)(F)F)cc3)nc2)C2CCCC2)nc1 (stereo not drawn) [Example 4.28, 3-(6-(cyclopentyl(2-(4-(trifluoromethyl)phenyl)pyrimidin-5-yl)methylamino)nicotinamido)propanoic acid]"
14,1100 nM,"CC(C)CC(Nc1cnc(C(=O)NCCC(=O)O)cn1)c1ccc(-c2ccc(C(F)(F)F)cc2)cc1 (single isomer, unassigned; isomer 1) [Example 1.17, 3-(5-(3-methyl-1-(4′-(trifluoromethyl)biphenyl-4-yl)butylamino)pyrazine-2-carboxamido)propanoic acid, Isomer 1]"
15,60 nM,"CCCC(Nc1ccc(-c2ccc(C(F)(F)F)cc2)nc1)c1ccc(C(=O)NCCC(=O)O)cc1 (stereo not drawn) [Example 4.18, 3-(4-(1-(6-(4-(trifluoromethyl)phenyl)pyridin-3-ylamino)butyl)benzamido)propanoic acid]"
16,620 nM,"CC(C)CC(Nc1ccc(C(=O)NCCC(=O)O)cn1)c1ccc(-c2ccc(C#N)cc2)cc1 (racemic) [Example 1.45, (+/−)-3-(6-(1-(4′-cyanobiphenyl-4-yl)-3-methylbutylamino)nicotinamido)propanoic acid]"
17,1200 nM,"Cc1cccc(C)c1-c1ccc(C(CC(C)C)Nc2ccc(C(=O)NCCC(=O)O)cn2)cc1 (racemic) [Example 1.48, (+/−)-3-(6-(1-(2′,6′-dimethylbiphenyl-4-yl)-3-methylbutylamino)nicotinamido)propanoic acid]"
18,55 nM,"CC(C)CC(Nc1cnc(-c2ccc(C(F)(F)F)cc2)nc1)c1ccc(C(=O)NCCC(=O)O)cc1 (stereo not drawn) [Example 4.31, 3-(4-(3-methyl-1-(2-(4-(trifluoromethyl)phenyl)pyrimidin-5-ylamino)butyl)benzamido)propanoic acid]"
19,820 nM,"CCC[C@@H](Nc1cnc(-c2ccc(C(F)(F)F)cc2)cn1)c1ccc(C(=O)NCCC(=O)O)cc1 [Example 4.5, (R)-3-(4-(1-((5-(4-(trifluoromethyl)phenyl)pyrazin-2-yl)amino)butyl)benzamido)propanoic acid]"
20,38 nM,"Cc1cc(NC(CC(C)C)c2ccc(C(=O)NCCC(=O)O)cn2)cc(C)c1-c1ccc(C(F)(F)F)cc1 (racemic) [Example 2.1, (+/−)-3-(6-(1-(2,6-dimethyl-4′-(trifluoromethyl)biphenyl-4-ylamino)-3-methylbutyl)nicotinamido)propanoic acid]"
21,95 nM,"Cc1cc(C(CC(C)C)Nc2ccc(C(=O)NCCC(=O)O)cn2)ccc1-c1ccc(C(F)(F)F)cc1 (racemic) [Example 1.25, (+/−)-3-(6-(3-methyl-1-(2-methyl-4′-(trifluoromethyl)biphenyl-4-yl)butylamino)nicotinamido)propanoic acid]"
22,5000 nM,"CC(C)CC(Nc1ccc(C(=O)NCCC(=O)O)cn1)c1ccc(-c2ccc(C(=O)N(C)C)cc2)cc1 (racemic) [Example 1.56, (+/−)-3-(6-(1-(4′-(dimethylcarbamoyl)biphenyl-4-yl)-3-methylbutylamino)nicotinamido)propanoic acid]"
23,120 nM,"COc1ccc(-c2ccc(C(CC(C)C)Nc3ccc(C(=O)NCCC(=O)O)cn3)cc2)cc1 (racemic) [Example 1.52, (+/−)-3-(6-(1-(4′-methoxybiphenyl-4-yl)-3-methylbutylamino)nicotinamido)propanoic acid]"
24,280 nM,"CC(C)CC(Nc1ccc(-c2ccc(C(F)(F)F)cc2)nc1)c1ccc(C(=O)NCCC(=O)O)cn1 (racemic) [Example 2.7, (+/−)-3-(6-(3-methyl-1-(6-(4-(trifluoromethyl)phenyl)pyridin-3-ylamino)butyl)nicotinamido)propanoic acid]"
25,66 nM,"CCC[C@H](Nc1cnc(-c2ccc(C(F)(F)F)cc2)cn1)c1ccc(C(=O)NCCC(=O)O)cc1 [Example 4.4, (S)-3-(4-(1-((5-(4-(trifluoromethyl)phenyl)pyrazin-2-yl)amino)butyl)benzamido)propanoic acid]"
26,520 nM,"CC(C)CC(Nc1ccc(C(=O)NCc2nn[nH]n2)cn1)c1ccc(-c2ccc(C(F)(F)F)cc2)cc1 (racemic) [Example 1.21, (+/−)-N-((2H-tetrazol-5-yl)methyl)-6-(3-methyl-1-(4′-(trifluoromethyl)biphenyl-4-yl)butylamino)nicotinamide]"
27,190 nM,"COc1ccccc1-c1ccc(C(CC(C)C)Nc2ccc(C(=O)NCCC(=O)O)cn2)cc1 (racemic) [Example 1.43, (+/−)-3-(6-(1-(2′-methoxybiphenyl-4-yl)-3-methylbutylamino)nicotinamido)propanoic acid]"
28,980 nM,"CC(C)C[C@@H](Nc1ccc(C(=O)NCCC(=O)O)cn1)c1ccc(-c2ccc(C(F)(F)F)cc2)nc1 (single isomer, unassigned; isomer 2) [Example 4.21, 3-(6-(3-methyl-1-(6-(4-(trifluoromethyl)phenyl)pyridin-3-yl)butylamino)nicotinamido) propanoic acid, Isomer 2]"
29,1900 nM,"CC(C)CC(Nc1ccc(-c2ccc(C(F)(F)F)cc2)cc1)c1ccc(C(=O)Nc2nn[nH]n2)cn1 (racemic) [Example 2.13, (+/−)-6-(3-methyl-1-(4′-(trifluoromethyl)biphenyl-4-ylamino)butyl)-N-(2H-tetrazol-5-yl)nicotinamide]"
30,200 nM,"CCCC(Nc1ccc(C(=O)NCCC(=O)O)cn1)c1ccc(-c2ccc(C(F)(F)F)cc2)c(C#N)c1 (racemic) [Example 4.8, (±)-3-(6-((1-(2-cyano-4′-(trifluoromethyl)-[1,1′-biphenyl]-4-yl)butyl)amino)nicotinamido)propanoic acid]"
